# Literature values as cited in US7585955B2, “Protein separation from a protein mixture” (Florida State University Research Foundation, Inc, priority 2005, dated 2009).
# Details: for pKa1 / pKa2: polyprotic buffer component
Compound,pKa,pKa1,pKa2
Nc1nccs1 [thiazolamine],about 5.30,–,–
chloroaniline,about 2.80,–,–
CC(=O)NCC(=O)O [N-acetylglycine],about 3.70,–,–
O=C(O)CCCl [3-chloropropanoic acid],about 3.98,–,–
NC[C@H](O)c1ccc(O)c(O)c1 [noradrenaline],–,about 9.70,about 8.60
c1ccc2cnccc2c1 [isoquinoline],about 5.40,–,–
NCCc1c[nH]cn1 [histamine],–,about 9.80,about 6.00
N=C(N)NCC(=O)O [glycocyamine],about 2.80,–,–
Cc1ccnc2ccccc12 [4-methylquinoline],about 5.70,–,–
Cc1ccc2ccccc2n1 [2-methylquinoline],about 5.80,–,–
Clc1cnc2ncncc2n1 [6-chloropteridine],about 3.70,–,–
O=C(O)CCCCCC(=O)O [heptanedioic acid],–,about 5.60,about 4.70
CC(O)C(=O)O (centres unmarked) [lactic acid],about 3.80,–,–
"CC(N)CN (centres unmarked) [1,2-propanediamine]",–,about 9.80,about 6.60
Oc1ccc2ccncc2c1 [7-isoquinolinol],–,about 8.90,about 5.70
Nc1ccc(N=Nc2ccccc2)cc1 [4-aminoazobenzene],about 2.82,–,–
CCNc1ccccc1 [N-ethylaniline],about 5.10,–,–
CN(C)C [trimethylamine],about 9.80,–,–
Cc1cccc2ncccc12 [5-methylquinoline],about 5.20,–,–
O=c1[nH]c(=O)c2[nH]c(=O)[nH]c2[nH]1 [uric acid],about 3.90,–,–
O=C(O)c1cncc(C(=O)O)c1 [dinicotinic acid],about 2.80,–,–
"CN(C)CC(=O)O [N,N-dimethylglycine]",about 9.90,–,–
c1ccc2nc3ccccc3cc2c1 [acridine],about 5.60,–,–
CC(=O)CC(=O)O [acetoacetic acid],about 3.60,–,–
